In PubChem BioAssay AID328 (DTP/NCI, 2004):
“And” between values parts separate entries of the source, which are not always exact repeats. Equal entries are not always repeated. Toxic doses and inconclusive results are not listed.

Test system: BDF1 mice, P388 leukemia ip, median survival T/C
Test: NCI In Vivo Anticancer Drug Screen. Data for tumor model P388 Leukemia (intraperitoneal) in B6D2F1 (BDF1) mice
Conditions: endpoint: median survival time, higher = longer survival
Outline: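 Compound-treated tumour-bearing mice were compared with vehicle-treated controls. Survival was recorded, and the value is the treated-group measurement divided by the control-group measurement (T/C).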

[1] = dose: 25.0 mg/kg/injection, schedule: Q01DX009 (ip), vehicle: Klucel (hydroxypropylcellulose) (HPC)
[2] = dose: 25.0 mg/kg/injection, schedule: Q01DX009 (ip), vehicle: saline
[3] = dose: 25.0 mg/kg/injection, schedule: Q04DX003 (ip), vehicle: saline
[4] = dose: 50.0 mg/kg/injection, schedule: Q01DX009 (ip), vehicle: Klucel (hydroxypropylcellulose) (HPC)
[5] = dose: 50.0 mg/kg/injection, schedule: Q01DX009 (ip), vehicle: saline
[6] = dose: 50.0 mg/kg/injection, schedule: Q04DX003 (ip), vehicle: saline
[7] = dose: 400.0 mg/kg/injection, schedule: Q04DX003 (ip), vehicle: saline
[8] = dose: 25.0 mg/kg/injection, schedule: Q01DX009 (ip), vehicle: saline with Tween-80
[9] = dose: 100.0 mg/kg/injection, schedule: Q04DX003 (ip), vehicle: saline
[10] = dose: 200.0 mg/kg/injection, schedule: Q04DX003 (ip), vehicle: saline
[11] = dose: 100.0 mg/kg/injection, schedule: Q01DX009 (ip), vehicle: saline with Tween-80
[12] = dose: 200.0 mg/kg/injection, schedule: Q01DX009 (ip), vehicle: saline with Tween-80
[13] = dose: 12.5 mg/kg/injection, schedule: Q01DX009 (ip), vehicle: saline with Tween-80
[14] = dose: 50.0 mg/kg/injection, schedule: Q01DX009 (ip), vehicle: saline with Tween-80

`NC(CSC(c1ccccc1)(c1ccccc1)c1ccc(CO)cc1)C(=O)O` (configuration not stated) was tested, and the T/C (dose: 3.0 mg/kg/injection, schedule: Q01DX009 (ip), vehicle: Klucel (hydroxypropylcellulose) (HPC)) was 100 % of control, the T/C (dose: 6.0 mg/kg/injection, schedule: Q01DX009 (ip), vehicle: Klucel (hydroxypropylcellulose) (HPC)) was 113 % of control and the T/C (dose: 12.0 mg/kg/injection, schedule: Q01DX009 (ip), vehicle: Klucel (hydroxypropylcellulose) (HPC)) was 122 % of control. For the same compound, the T/C (dose: 12.0 mg/kg/injection, schedule: Q01DX009 (ip), vehicle: saline) was 109 % of control, the T/C (dose: 12.0 mg/kg/injection, schedule: Q04DX003 (ip), vehicle: saline) was 100 % of control and the T/C [1] was 150 % of control. The T/C [2] was 159 % of control, the T/C [3] was 103 % of control and the T/C [4] was 168 % of control. For the same compound, the T/C [5] was 163 % of control, the T/C [6] was 111 % of control and the T/C (dose: 75.0 mg/kg/injection, schedule: Q01DX009 (ip), vehicle: Klucel (hydroxypropylcellulose) (HPC)) was 159 % of control. For the same compound, the T/C (dose: 150.0 mg/kg/injection, schedule: Q01DX009 (ip), vehicle: Klucel (hydroxypropylcellulose) (HPC)) was 154 % of control, the T/C (dose: 300.0 mg/kg/injection, schedule: Q01DX009 (ip), vehicle: Klucel (hydroxypropylcellulose) (HPC)) was 259 % of control and the T/C (dose: 400.0 mg/kg/injection, schedule: Q01DX009 (ip), vehicle: Klucel (hydroxypropylcellulose) (HPC)) was 272 % of control. The T/C [7] was 155 % of control.

For `COc1ccc(C(=O)/C=C/c2ccccc2)c(O)c1CC=C(C)C` (tested in a mixture with another compound), the T/C (dose: 3.12 mg/kg/injection, schedule: Q01DX009 (ip), vehicle: Klucel (hydroxypropylcellulose) (HPC)) was 90 % of control, the T/C (dose: 6.25 mg/kg/injection, schedule: Q01DX009 (ip), vehicle: Klucel (hydroxypropylcellulose) (HPC)) was 102 % of control and the T/C (dose: 12.5 mg/kg/injection, schedule: Q01DX009 (ip), vehicle: Klucel (hydroxypropylcellulose) (HPC)) was 107 % of control. The T/C [1] was 109 % of control, the T/C [4] was 91 % of control and the T/C (dose: 100.0 mg/kg/injection, schedule: Q01DX009 (ip), vehicle: Klucel (hydroxypropylcellulose) (HPC)) was 92 % of control.

With `COc1ccc(N=NNc2ccc(OC)cc2)cc1` the T/C [8] was 154 % of control and the T/C (dose: 37.5 mg/kg/injection, schedule: Q01DX009 (ip), vehicle: saline with Tween-80) was 155 % of control and 166 % of control.

For `CNC(=O)OCc1c(-c2ccccc2)nc2sccn12`, the T/C (dose: 12.5 mg/kg/injection, schedule: Q01DX001 (ip), vehicle: Klucel (hydroxypropylcellulose) (HPC)) was 109 % of control and the T/C (dose: 25.0 mg/kg/injection, schedule: Q01DX001 (ip), vehicle: Klucel (hydroxypropylcellulose) (HPC)) was 113 % of control.

`Clc1ncnc2c1ncn2C1CCCO1` (configuration not stated) was tested, and the T/C [9] was 104 % of control and the T/C [10] was 104 % of control.

With `N#C/C(=C\c1ccc(O)cc1)c1ccc([N+](=O)[O-])cc1` the T/C (dose: 25.0 mg/kg/injection, schedule: Q01DX001 (ip), vehicle: saline) was 98 % of control, the T/C (dose: 50.0 mg/kg/injection, schedule: Q01DX001 (ip), vehicle: saline) was 100 % of control and the T/C (dose: 100.0 mg/kg/injection, schedule: Q01DX001 (ip), vehicle: saline with Tween-80) was 97 % of control. The T/C (dose: 100.0 mg/kg/injection, schedule: Q01DX001 (ip), vehicle: saline) was 96 % of control.

In the case of `COC12C(COC(N)=O)C3=C(C(=O)C(C)=C(N4CC4)C3=O)N1CC1NC12` (configuration not stated), the T/C (dose: 0.21 mg/kg/injection, schedule: Q04DX003 (ip), vehicle: saline with Tween-80) is reported as 235 % of control, the T/C (dose: 0.33 mg/kg/injection, schedule: Q04DX003 (ip), vehicle: saline with Tween-80) is reported as 200 % of control and the T/C (dose: 0.5 mg/kg/injection, schedule: Q04DX003 (ip), vehicle: saline with Tween-80) is reported as 190 % of control. The T/C (dose: 0.75 mg/kg/injection, schedule: Q04DX003 (ip), vehicle: saline with Tween-80) was 255 % of control.

For `COc1cc2cc[n+]3c(C)c4cc5c(cc4cc3c2cc1OC)OCO5` (tested in a mixture with another compound), the T/C (dose: 2.2 mg/kg/injection, schedule: Q01DX009 (ip), vehicle: saline) was 158 % of control, the T/C (dose: 3.3 mg/kg/injection, schedule: Q01DX009 (ip), vehicle: saline) was 163 % of control and the T/C (dose: 5.0 mg/kg/injection, schedule: Q01DX009 (ip), vehicle: saline) was 174 % of control. For the same compound, the T/C (dose: 7.5 mg/kg/injection, schedule: Q01DX009 (ip), vehicle: saline) was 186 % of control, the T/C (dose: 12.5 mg/kg/injection, schedule: Q01DX009 (ip), vehicle: saline) was 230 % of control and the T/C [2] was 123 % of control. For the same compound, the T/C [5] was 102 % of control.

For `O=C(O)C1CCCC2C(O)CCC(=O)C12` (configuration not stated), the T/C [11] was 100 % of control and the T/C [12] was 109 % of control.

`Cn1nnnc1[N-]Cc1ccccc1.[Au+].c1ccc([PH+](c2ccccc2)c2ccccc2)cc1` was tested, and the T/C (dose: 12.5 mg/kg/injection, schedule: Q01DX001 (ip), vehicle: saline with Tween-80) was 111 % of control, the T/C (dose: 25.0 mg/kg/injection, schedule: Q01DX001 (ip), vehicle: saline with Tween-80) was 111 % of control and the T/C (dose: 50.0 mg/kg/injection, schedule: Q01DX001 (ip), vehicle: saline with Tween-80) was 123 % of control.

With `CC(Oc1ccccc1-c1ccccc1)C(=O)N(C)C` (configuration not stated) the T/C [13] was 100 % of control, the T/C [14] was 121 % of control and 124 % of control and the T/C [11] was 97 % of control and 105 % of control. The T/C [12] was 112 % of control.

In the case of `Oc1ccc(N=Cc2ccccc2O)cc1`, the T/C (dose: 100.0 mg/kg/injection, schedule: Q01DX009 (ip), vehicle: saline) is reported as 108 % of control, the T/C [9] is reported as 105 % of control and the T/C [10] is reported as 100 % of control. The T/C [7] was 110 % of control.

`CCN(CC)CCNc1ccc(CO)c2sc3ccc(O)cc3c(=O)c12` was tested, and the T/C (dose: 9.88 mg/kg/injection, schedule: Q04DX002 (ip), vehicle: saline with Tween-80) was 163 % of control, the T/C (dose: 18.75 mg/kg/injection, schedule: Q04DX002 (ip), vehicle: saline with Tween-80) was 207 % of control and the T/C (dose: 37.5 mg/kg/injection, schedule: Q04DX002 (ip), vehicle: saline with Tween-80) was 179 % of control. The T/C (dose: 75.0 mg/kg/injection, schedule: Q04DX002 (ip), vehicle: saline with Tween-80) was 207 % of control.

In the case of `CCCCCCCCCCC(C)c1ccc(S(=O)(=O)O)cc1` (configuration not stated), the T/C [13] is reported as 103 % of control, the T/C [8] is reported as 110 % of control and the T/C (dose: 33.0 mg/kg/injection, schedule: Q01DX009 (ip), vehicle: saline with Tween-80) is reported as 120 % of control. For the same compound, the T/C [14] was 115 % of control and 116 % of control and 118 % of control, the T/C (dose: 75.0 mg/kg/injection, schedule: Q01DX009 (ip), vehicle: saline with Tween-80) was 110 % of control and the T/C [11] was 119 % of control.

With `CC(C)(C)c1cccc(C(C)(C)C)c1OC(=O)NS(=O)(=O)c1ccccc1` the T/C (dose: 12.5 mg/kg/injection, schedule: Q04DX003 (ip), vehicle: saline) was 111 % of control, the T/C [3] was 105 % of control and the T/C [6] was 100 % of control. The T/C (dose: 75.0 mg/kg/injection, schedule: Q04DX003 (ip), vehicle: Klucel (hydroxypropylcellulose) (HPC)) was 104 % of control and the T/C (dose: 115.0 mg/kg/injection, schedule: Q04DX003 (ip), vehicle: Klucel (hydroxypropylcellulose) (HPC)) was 104 % of control.

`CCCn1cnc2c(=S)nc[nH]c21` was tested, and the T/C [11] was 108 % of control, the T/C (dose: 100.0 mg/kg/injection, schedule: Q04DX003 (ip), vehicle: saline with Tween-80) was 109 % of control and the T/C (dose: 200.0 mg/kg/injection, schedule: Q04DX003 (ip), vehicle: saline with Tween-80) was 118 % of control. For the same compound, the T/C (dose: 400.0 mg/kg/injection, schedule: Q04DX003 (ip), vehicle: saline with Tween-80) was 113 % of control.

In the case of `C#CCOCCBr`, the T/C (dose: 22.0 mg/kg/injection, schedule: Q01DX009 (ip), vehicle: saline) is reported as 122 % of control.

For `Nc1nc(C(F)(F)F)c(CCCCc2ccccc2)c(=O)[nH]1`, the T/C (dose: 100.0 mg/kg/injection, schedule: Q01DX001 (ip), vehicle: Klucel (hydroxypropylcellulose) (HPC)) was 111 % of control, the T/C (dose: 200.0 mg/kg/injection, schedule: Q01DX001 (ip), vehicle: Klucel (hydroxypropylcellulose) (HPC)) was 117 % of control and the T/C (dose: 400.0 mg/kg/injection, schedule: Q01DX001 (ip), vehicle: Klucel (hydroxypropylcellulose) (HPC)) was 98 % of control.

In the case of `O=C(Nc1ccccc1)Nc1ccc([N+](=O)[O-])cc1`, the T/C (dose: 100.0 mg/kg/injection, schedule: Q04DX003 (ip), vehicle: Klucel (hydroxypropylcellulose) (HPC)) is reported as 105 % of control, the T/C (dose: 200.0 mg/kg/injection, schedule: Q04DX003 (ip), vehicle: Klucel (hydroxypropylcellulose) (HPC)) is reported as 110 % of control and the T/C (dose: 400.0 mg/kg/injection, schedule: Q04DX003 (ip), vehicle: Klucel (hydroxypropylcellulose) (HPC)) is reported as 105 % of control.
